Source: patent publication US20140275234A1, “COMPOSITIONS AND METHODS OF USING CRYSTALLINE FORMS OF WORTMANNIN ANALOGS” (ONCOTHYREON INC., priority 2010, published 2014)

Legend:
[1] = Initial solvent screen, visual dissolution on adding solvent in 50 μL portions; assay type: physicochemical; settings: for Soluble: RT
Method: This initial solvent screen of PX-866 in 18 solvents was executed to select appropriate solvents for slurry experiments. Approximately 1-2 mg of the material was placed in 2 dram glass vials and the chosen solvents were added in 50 μL portions to determine the minimum amount of solvent needed for dissolution. The vials were shaken at ambient temperature and visually inspected between each addition to determine if complete dissolution had taken place.
To estimate the ratio of primary solvent to anti-solvent necessary for use in the slurry experiments, heptane or water was then added to the dissolved PX-866 in […], portions until a turbid solution was formed or solids precipitated out. […] The exceptions occurred when MeCN and AcOH were used as the primary solvent as the product oiled out upon anti-solvent addition.

[2] = Solubility Screening Test I and II, HPLC of supernatant; assay type: physicochemical
Method: For each solvent, a 100 μL glass crimp-top vial was charged with ˜10 mg of PX-866 and sealed. By syringe, 2 parts of the appropriate solvent was added. If PX-866 dissolved completely, no further work was done. If necessary, more solvent was added to obtain a supernatant. The crimped vial was sonicated for 15 minutes and then centrifuged for 30 seconds. 1.0 μL of the supernatant was removed by syringe and added to a sealed HPLC vial containing 500 μL of acetonitrile. The same saturated solution was then heated for 30 minutes to a set point of 50° C., centrifuged again, and a second HPLC vial was prepared with 1.0 μL of the supernatant at 50° C. In the case of toluene, anisole, o-xylene, propyl acetate, 4-methyl-2-pentanone, and 1-pentanol the room temperature supernatant was transferred to a clean vial and cooled down to 0° C., and then −20° C. For each temperature, an HPLC vial was prepared with 1.0 μL of the supernatant. HPLC samples were run using the method described below and the 254 nm AUC was plotted on a calibration curve to obtain solubility data.
The samples that crystallized were cooled to 0° C. and subsequently −20° C. to acquire two additional temperature points. Solubility in the aliphatic solvents (propyl acetate, 4-methyl-2-pentanone, and 1-pentanol) decreased drastically with temperature from RT to −20° C.

[3] = Crystallization study in anisole, PX-866 quantified in supernatant; assay type: physicochemical
Method: 53 mg of PX-866 was placed in a 2 mL flat bottom vial and then added ˜940 μL (18 vol.) of anisole at RT. The supernatant was transferred to another vial and cooled down first to 4° C., and then to −20° C. (PX-866 quantified in aliquots of the supernatant at both temperatures). The resulted solids were dried under a stream of nitrogen and further dried under vacuum at RT for 16 hours, then dried under vacuum at 40° C. for 16 hours. PX-866 concentration in supernatant: RT: 9.9 mg/mL; 4° C.: 7.0 mg/mL; −20° C.: 6.2 mg/mL.

[4] = Formulation and handling studies of amorphous and crystalline forms; assay type: physicochemical
From the text: In some embodiments, crystalline forms of Compound 1 and/or analogs thereof show less variability in vitro dissolution profiles as compared to the amorphous form. In some instances, crystalline forms of Compound 1 and/or analogs thereof have better flowability as compared to the amorphous form.

[5] = Water slurry at ambient temperature; assay type: physicochemical; settings: 0.5 g slurry in deionized water
Method: An initial solvent screen was performed on PX-866 to determine appropriate primary solvents and anti-solvents. Slurries and several precipitations were then performed utilizing several primary solvents and anti-solvents at 50 mg scale. […] The water slurry was then scaled up to 0.5 g and performed at ambient temperature. Since there was a concern for degradation taking place during the slurry at ambient temperature an additional slurry was performed on 0.5 g scale at 10° C. in an attempt to minimize any potential degradation.

[6] = test system: phosphatidylinositol-3-kinase (PI-3K); settings: cited from earlier work
[7] = as described in WO 2011/153488 and WO 2011/153495; cited from earlier work
pulmonary fibrosis = settings: as described in WO 2010/118250; cited from earlier work
[8] = aqueous solutions at either 37° C. or 0° C. at neutral pH; cited from earlier work

C=CCN(/C=C1/C(=O)O[C@H](COC)[C@@]2(C)C1=C(O)C(=O)C1=C2[C@H](OC(C)=O)C[C@]2(C)C(=O)CC[C@@H]12)CC=C [PX-866, (4S,4aR,5R,6aS,9aR, Z)-1-((diallylamino)methylene)-11-hydroxy-4-(methoxymethyl)-4-a,6a-dimethyl-2,7,10-trioxo-1,2,4,4a,5,6,6a,7,8,9,9a,10-dodecahydroindeno[4,5-h]isochromen-5-yl acetate]
Soluble ([1]; AcOH, vial conc. 48.0 mg/mL): Yes
Soluble ([1]; Acetone, vial conc. 38.0 mg/mL): Yes
Soluble ([1]; Acetone, vial conc. 102.0 mg/mL (Table 2A)): Yes
Soluble ([1]; DCM, vial conc. 48.0 mg/mL): Yes
Soluble ([1]; DMF, vial conc. 56.0 mg/mL): Yes
Soluble ([1]; Dioxane, vial conc. 38.0 mg/mL): Yes
Soluble ([1]; EtOAc, vial conc. 38.0 mg/mL): Yes
Soluble ([1]; EtOH, vial conc. 56.0 mg/mL): Yes
Soluble ([1]; EtOH, vial conc. 164.0 mg/mL (Table 2A)): Yes
Soluble ([1]; Heptane, vial conc. 0.4 mg/mL): No
Soluble ([1]; IPA, vial conc. 28.0 mg/mL): Yes
Soluble ([1]; IPA, vial conc. 106.0 mg/mL (Table 2A)): Yes
Soluble ([1]; IPAc, vial conc. 32.0 mg/mL): Yes
Soluble ([1]; MECN, vial conc. 100.0 mg/mL (Table 2A)): Yes
Soluble ([1]; MEK, vial conc. 56.0 mg/mL): Yes
Soluble ([1]; MTBE, vial conc. 13.0 mg/mL): Yes
Soluble ([1]; MeCN, vial conc. 16.0 mg/mL): Yes
solubility at ambient temperature ([1]; MeCN, dioxane, acetone, MTBE, EtOH, EtOAc, IPAc, IPA, THF, MEK, DMF, AcOH, MeOH, toluene, DCM): good solubility
Soluble ([1]; MeOH, vial conc. 52.0 mg/mL): Yes
Soluble ([1]; MeOH, vial conc. 150.0 mg/mL (Table 2A)): Yes
Soluble ([1]; THF, vial conc. 52.0 mg/mL): Yes
Soluble ([1]; Toluene, vial conc. 56.0 mg/mL): Yes
Soluble ([1]; Water, vial conc. 0.3 mg/mL): Partially
Soluble ([1]; c-Hexane, vial conc. 0.3 mg/mL): No
Solubility ([1]; c-hexane, heptane, and water): limited or no solubility
Solubility ([2]; 1,1,1,3,3,3,hexafluoro-2-propanol, RT): >500 @ RT mg/mL
Solubility ([2]; 1,1,1-trichloroethane, RT): >500 @ RT mg/mL
Solubility ([2]; 1,1,2,2-tetrachloroethane, RT): >500 @ RT mg/mL
Solubility ([2]; 1,4-dioxane, RT): >500 @ RT mg/mL
Solubility ([2]; 1-butanol, RT): >500 @ RT mg/mL
Solubility ([2]; 1-octanol, RT): 90.6 mg/mL
Solubility ([2]; 1-pentanol, 0° C.): 22.8 mg/mL
Solubility ([2]; 1-pentanol, RT): 84.4 mg/mL
Solubility ([2]; 1-pentanol, −20° C.): 2.4 mg/mL
Solubility ([2]; 2,2,2-trifluoroethanol, RT): >500 @ RT mg/mL
Solubility ([2]; 2,2,4-trimethylpentane, RT): 0.37 mg/mL
Solubility ([2]; 2-butanone, RT): >500 @ RT mg/mL
Solubility ([2]; 2-ethoxyethanol, RT): >500 @ RT mg/mL
Solubility ([2]; 4-methyl-2-pentanone, 0° C.): 33.4 mg/mL
Solubility ([2]; 4-methyl-2-pentanone, RT): 38.4 mg/mL
Solubility ([2]; 4-methyl-2-pentanone, −20° C.): 8.5 mg/mL
Solubility ([2]; N-methyl-2-pyrrolidone, RT): >500 @ RT mg/mL
Solubility ([2]; acetone, RT): >500 @ RT mg/mL
Solubility ([2]; anisole, 0° C., supernatant after crystallization): 7.0 mg/mL
Solubility ([2]; anisole, RT, supernatant after crystallization): 9.9 mg/mL
Solubility ([2]; anisole, −20° C., supernatant after crystallization): 6.2 mg/mL
Solubility ([2]; benzyl alcohol, RT): 498.0 mg/mL
Solubility ([2]; butyl acetate, RT): >500 @ RT mg/mL
Solubility ([2]; chlorobenzene, RT): 15.6 mg/mL
Solubility ([2]; cumene, RT): 4.9 mg/mL
Solubility ([2]; di(ethylene glycol), RT): 374.8 mg/mL
Solubility ([2]; dibutyl ether, RT): 3.1 mg/mL
Solubility ([2]; dichloromethane, RT): >500 @ RT mg/mL
Solubility ([2]; diethyl ether, RT): 9.5 mg/mL
Solubility ([2]; diethylamine, RT): >500 @ RT mg/mL
Solubility ([2]; diisopropyl ether, RT): 4.2 mg/mL
Solubility ([2]; dimethylformamide, RT): >500 @ RT mg/mL
Solubility ([2]; dimethylsulfoxide, RT): 252.5 mg/mL
Solubility ([2]; ethanol, RT): >500 @ RT mg/mL
Solubility ([2]; ethanolamine, RT): >500 @ RT mg/mL
Comments: PX-866 in supernatant ([2]; ethanolamine, RT, solution turned dark orange): no PX-866 detected in
Solubility ([2]; ethyl acetate, RT): >500 @ RT mg/mL
Solubility ([2]; ethyl formate, RT): >500 @ RT mg/mL
Solubility ([2]; ethylene glycol, RT): 135.9 mg/mL
Solubility ([2]; glycerol, RT): 12.6 mg/mL
Solubility ([2]; heptanes, RT): 0.88 mg/mL
Solubility ([2]; hexanes, RT): 0.31 mg/mL
Solubility ([2]; isopentanol, RT): 228.2 mg/mL
Solubility ([2]; isopropyl acetate, RT): >500 @ RT mg/mL
Solubility ([2]; isopropyl alcohol, RT): >500 @ RT mg/mL
Solubility ([2]; m-xylene, RT): 4.5 mg/mL
Solubility ([2]; methanol, RT): >500 @ RT mg/mL
Solubility ([2]; methyl acetate, RT): >500 @ RT mg/mL
Solubility ([2]; methyl t-butyl ether, RT): 41.0 mg/mL
Solubility ([2]; methyltetrahydrofuran, RT): >500 @ RT mg/mL
Solubility ([2]; nitromethane, RT): >500 @ RT mg/mL
Solubility ([2]; o-xylene, 0° C., supernatant after crystallization): 7.3 mg/mL
Solubility ([2]; o-xylene, RT, supernatant after crystallization): 5.5 mg/mL
Solubility ([2]; o-xylene, −20° C., supernatant after crystallization): 5.7 mg/mL
Solubility ([2]; p-xylene, RT): 1.0 mg/mL
Solubility ([2]; pentane, RT): 0.79 mg/mL
Solubility ([2]; perfluorohexane, RT): 0.28 mg/mL
Solubility ([2]; propyl acetate, 0° C.): 54.8 mg/mL
Solubility ([2]; propyl acetate, RT): 84.6 mg/mL
Solubility ([2]; propyl acetate, −20° C.): 18.6 mg/mL
Solubility ([2]; sec-butyl ether, RT): 1.3 mg/mL
Solubility ([2]; t-Butanol, 30° C.): 340.0 mg/mL
Solubility ([2]; tetrahydrofuran, RT): >500 @ RT mg/mL
Solubility ([2]; toluene, 0° C., supernatant after crystallization): 2.7 mg/mL
Solubility ([2]; toluene, RT, supernatant after crystallization): 5.2 mg/mL
Solubility ([2]; toluene, −20° C., supernatant after crystallization): 2.6 mg/mL
Solubility ([2]; water, RT): 3.5 mg/mL
Comments: decomposition observed by HPLC ([2]; water, RT, solubility sample): Slightly soluble, significant decomposition
PX-866 concentration in supernatant ([3]; 4° C.): 7.0 mg/mL
PX-866 concentration in supernatant ([3]; RT): 9.9 mg/mL
PX-866 concentration in supernatant ([3]; −20° C.): 6.2 mg/mL
stability in solution [4]: poor stability
purity after water slurry [5]: notable decrease in PX-866 purity
inhibition of PI-3K [6]: irreversibly inhibits
efficacy in human trials [7]: has shown efficacy
efficacy in pulmonary fibrosis (pulmonary fibrosis): has shown efficacy

COC[C@H]1OC(=O)c2coc3c2[C@@]1(C)C1=C(C3=O)[C@@H]2CCC(=O)[C@@]2(C)C[C@H]1OC(C)=O [wortmannin]
Solubility ([2]; in toluene, anisole, and o-xylene): low
inhibition of PI-3K [6]: irreversibly inhibits
inhibition of PI-3 kinase isoforms ([6]; p110α, p110β, p110δ and p110γ): inhibited equally
stability in aqueous solution [8]: subject to decomposition
